The text below walks through data of patent publication US20120283217A1, “MODULATORS OF AMYLOID-BETA PRODUCTION” (SATORI PHARMACEUTICALS, INC., priority 2006, published 2012).

As a reminder, the melting point is the temperature of the solid-liquid transition.

For `CC(=O)O[C@H]1CC[C@]23C[C@]24CC[C@]2(C)[C@@H]([C@H](C)CCC(=O)O)CC[C@@]2(C)C4CCC3C1(C)C` (stereo in doubt) [Compound I-4, 3-β-O-acetyl-25,26,27-Trinorcycloartan-24-oic acid], the melting point is 201 to 212 °C. In turn, `C/C=C1/C(O)CC2C3CC=C4C[C@@H](O)CC[C@]4(C)C3CC[C@]12C` (stereo partly shown) had a melting point of 151 to 154 °C. Take `CC(=O)O[C@H]1CC[C@]23C[C@]24CC[C@]2(C)[C@@H]([C@H](C)CCC(O)C(C)C)CC[C@@]2(C)[C@@H]4CC[C@H]3C1(C)C` (stereo partly shown): the melting point was in the range of 126 to 128 °C. Compound `C/C=C1/C(O)CC2C3CC=C4C[C@@H](O[Si](C)(C)C(C)(C)C)CC[C@]4(C)C3CC[C@]12C` (stereo in doubt) [Compound I-7] yielded a melting point of 137 to 139 °C. Regarding `C=C[C@@H](C)[C@H]1C(=O)C[C@H]2[C@@H]3CC[C@H]4C[C@@H](O[Si](C)(C)C(C)(C)C)CC[C@]4(C)[C@H]3CC[C@]12C`, the melting point lay in the range of 132 to 134 °C.

In turn, `C[C@H](C#N)[C@H]1C(=O)C[C@H]2[C@@H]3CC=C4C[C@@H](O)CC[C@]4(C)[C@H]3CC[C@]12C` had a melting point of 124 to 126 °C. `C[C@H](C(O)CO)C1C(=O)C[C@H]2[C@@H]3CC=C4C[C@@H](O[Si](C)(C)C(C)(C)C)CC[C@]4(C)[C@H]3CC[C@]12C` (stereo partly shown) showed a melting point of 172 to 175 °C.

In the case of `C/C=C1/[C@H](O)C[C@H]2[C@@H]3CC[C@H]4C[C@@H](O[Si](C)(C)C(C)(C)C)CC[C@]4(C)[C@H]3CC[C@]12C` (stereo in doubt), the melting point lay within 145 to 147 °C.

For the compound `CC(=O)O[C@H]1CC[C@]23C[C@]24CC[C@]2(C)[C@@H]([C@H](C)CC(=O)C(C#N)=P(c5ccccc5)(c5ccccc5)c5ccccc5)CC[C@@]2(C)C4CCC3C1(C)C` (stereo in doubt) [Compound I-19], the melting point is 203 to 205 °C.

`CC(=O)O[C@H]1CC[C@]23C[C@]24CC[C@]2(C)[C@@H]([C@H](C)CC(=O)C(F)(F)F)CC[C@@]2(C)C4CCC3C1(C)C` (stereo in doubt) [Compound I-18, 3β-Acetoxy-9,19-Cyclo-4,4,14-trimethyl-23-oxo-24-trifluorocholane] came in with a melting point of 170 to 173 °C.

`C/C=C1/CC[C@H]2[C@@H]3CC[C@H]4C[C@@H](O[Si](C)(C)C(C)(C)C)CC[C@]4(C)[C@H]3CC[C@]12C` (stereo in doubt) had a melting point of 136 to 137 °C. On to `CC(=O)O[C@H]1CC[C@]23C[C@]24CC[C@]2(C)[C@@H]([C@H](C)CC(=O)O)CC[C@@]2(C)C4CCC3C1(C)C` (stereo in doubt) [Compound I-17, 3β-Acetoxy-9,19-Cyclo-4,4,14-trimethyl-24-norchol-23-oic acid], for which the melting point fell in the range of 222 to 224 °C. The compound `C=C[C@@H](C)[C@H]1CC[C@@]2(C)[C@@H]3CC[C@H]4C(C)(C)[C@@H](OC(C)=O)CC[C@@]45C[C@@]35CC[C@]12C` gave a melting point of 145 to 147 °C. Take `CC(=O)O[C@H]1CC[C@]23C[C@]24CC[C@]2(C)[C@@H]([C@H](C)CCC5OC5(C)C)CC[C@@]2(C)[C@@H]4CC[C@H]3C1(C)C` (stereo partly shown): the melting point lay within 141 to 143 °C.

Take `C/C=C1/CCC2C3CC=C4C[C@@H](O)CC[C@]4(C)C3CC[C@]12C` (stereo partly shown): the melting point was in the range of 168 to 170 °C. In turn, `CC(=O)O[C@H]1CC[C@]23C[C@]24CC[C@]2(C)[C@@H]([C@H](C)CCC5(C(C)C)CO5)CC[C@@]2(C)[C@@H]4CC[C@H]3C1(C)C` (stereo partly shown) showed a melting point of 129 to 131 °C.

As to `C/C=C1/CC[C@H]2[C@@H]3CC=C4C[C@@H](O[Si](C)(C)C(C)(C)C)CC[C@]4(C)[C@H]3CC[C@]12C` [Compound I-6], the melting point was 128 to 130 °C.

The compound `CC(=O)O[C@H]1CC[C@]23C[C@]24CC[C@]2(C)[C@@H]([C@H](C)CCC(=O)C(C)C)CC[C@@]2(C)C4CCC3C1(C)C` (stereo partly drawn) [Compound I-3, 24-Oxocycloartanol-3-β-O-acetate] displayed a melting point of 119 to 121 °C. In turn, `CC(=O)O[C@H]1CC[C@]23C[C@]24CC[C@]2(C)[C@@H]([C@H](C)CCC(=O)C(F)(F)F)CC[C@@]2(C)[C@@H]4CC[C@H]3C1(C)C` registered a melting point of 133 to 135 °C.

Regarding `COC(=O)C(=O)C[C@@H](C)[C@H]1CC[C@@]2(C)C3CCC4C(C)(C)[C@@H](OC(C)=O)CC[C@@]45C[C@@]35CC[C@]12C` (stereo in doubt) [Compound I-20], the melting point lay in the range of 120 to 122 °C. As to `CC(C#N)[C@H]1[C@@H](O)CC2C3CC=C4C[C@@H](O[Si](C)(C)C(C)(C)C)CC[C@]4(C)C3CC[C@@]21C` (stereo in doubt) [Compound I-10], the melting point lay within 290 to 292 °C. `C[C@H](C1CO1)[C@H]1C(=O)C[C@H]2[C@@H]3CC=C4C[C@@H](O[Si](C)(C)C(C)(C)C)CC[C@]4(C)[C@H]3CC[C@]12C` (stereo partly shown) gave a melting point of 103 to 104 °C. `C/C=C1\C(=O)C[C@H]2[C@@H]3CC=C4C[C@@H](O)CC[C@]4(C)[C@H]3CC[C@]12C` had a melting point of 112 to 113 °C. With `C/C=C1\C(=O)C[C@H]2[C@@H]3CC=C4C[C@@H](O[Si](C)(C)C(C)(C)C)CC[C@]4(C)[C@H]3CC[C@]12C`, the melting point fell in the range of 138 to 142 °C. The compound `C/C=C1/C(=O)CC2C3CC=C4C[C@@H](O)CC[C@]4(C)C3CC[C@]12C` (stereo partly shown) registered a melting point of 124 to 126 °C. Consider `C=C[C@@H](C)[C@H]1[C@H](O)C[C@H]2[C@@H]3CC=C4C[C@@H](O[Si](C)(C)C(C)(C)C)CC[C@]4(C)[C@H]3CC[C@]12C`, for which the melting point was in the range of 156 to 158 °C. `CC(C)(C)[Si](C)(C)O[C@H]1CC[C@@]2(C)[C@@H](CC[C@@H]3[C@@H]2CC[C@]2(C)C(=O)CC[C@@H]32)C1` had a melting point of 159 to 162 °C. To `C/C=C1/C(=O)C[C@H]2[C@@H]3CC=C4C[C@@H](O[Si](C)(C)C(C)(C)C)CC[C@]4(C)[C@H]3CC[C@]12C` [Compound I-8] belongs 161 to 163 °C; to `CC(C)(C)[Si](C)(C)O[C@H]1CC[C@@]2(C)C(=CC[C@@H]3[C@@H]2CC[C@]2(C)C(=O)CC[C@@H]32)C1` [Compound I-13], 150 to 152 °C; to `COC(=O)C(=O)C[C@@H](C)[C@H]1CC[C@@]2(C)C3CCC4C(C)(C)[C@@H](OC(C)=O)CC[C@]4(C)C3CC[C@]12C` (stereo partly shown), 125 to 127 °C. The compound `C/C=C1/C(=O)C[C@H]2[C@@H]3CC[C@H]4C[C@@H](O[Si](C)(C)C(C)(C)C)CC[C@]4(C)[C@H]3CC[C@]12C` (stereo in doubt) registered a melting point of 210 to 212 °C. In turn, `C=C[C@@H](C)[C@H]1C(=O)CC2C3CC=C4C[C@@H](O)CC[C@]4(C)C3CC[C@@]21C` (stereo partly shown) returned a melting point of 125 to 127 °C.

Turning to `CC(=O)O[C@H]1CC[C@]2(C)C3CC[C@]4(C)[C@@H]([C@H](C)CC(=O)O)CC[C@@]4(C)C3CCC2C1(C)C` (stereo partly shown), the melting point lay in the range of 203 to 205 °C. Turning to `C=C[C@@H](C)[C@H]1C2(CC3C4CC=C5C[C@@H](O[Si](C)(C)C(C)(C)C)CC[C@]5(C)C4CC[C@@]31C)OCCO2` (stereo partly shown), the melting point lay within 112 to 114 °C.
